# Measured values as given in ChEMBL document CHEMBL1201862, “PubChem BioAssay data set” (2004).
#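 Tested at 5 concentrations; 48 h exposure; 96-well plates; endpoints linearly interpolated, else capped at highest concentration. The concentration for 50% growth inhibition is given as GI50.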 Active and inactive are the calls of the source. No stated cut-off is given here; in the data, active = GI50 up to about 1.1 µM and inactive = higher.
# Assays:
# Assay in all cases: inhibition of tumour cell growth, NCI panel, 48 h
# DLD-1 = system: DLD-1
# KM-20L2 = system: KM-20L2
# HOP-18 = system: HOP-18
# M19-MEL = system: M19-MEL
# DMS-114 = system: DMS-114
# SNB-78 = system: SNB-78
# LXFL 529 = system: LXFL 529
# XF498 = system: XF498
# RXF 631 = system: RXF 631
Compound,GI50 (DLD-1),GI50 (KM-20L2),GI50 (HOP-18),GI50 (M19-MEL),GI50 (DMS-114),GI50 (SNB-78),GI50 (LXFL 529),GI50 (XF498),GI50 (RXF 631)
Cc1nc(-n2nc(-c3ccccc3)cc2-c2ccccc2)sc1C(=O)/C=C/c1ccc(Cl)cc1,13.2 µM (inactive),24.4 µM (inactive),14.4 µM (inactive),18.4 µM (inactive),11.4 µM (inactive),46 µM (inactive),–,–,–
O=C(c1ccc(Cl)cc1)c1cnc(Nc2ccccc2Cl)s1,28.5 µM (inactive),–,–,34.1 µM (inactive),24.7 µM (inactive),–,16.3 µM (inactive),–,–
COc1ccc(CC2NCCc3cc(OC)c(OC)cc32)cc1Br (stereo unspecified),66.7 µM (inactive),25.8 µM (inactive),23.1 µM (inactive),20.7 µM (inactive),17.6 µM (inactive),42.4 µM (inactive),26.9 µM (inactive),11.9 µM (inactive),–
Nc1nc(F)nc2c1ncn2C1OC(COP(=O)(O)O)C(O)C1O (stereo unspecified),101 µM (inactive),105 µM (inactive),63.2 µM (inactive),46.1 µM (inactive),10.7 µM (inactive),186 µM (inactive),–,66.8 µM (inactive),–
CCCCCC1CC=CC(NC(=O)OCc2ccccc2)C1/C=C/CCCC1OCCO1 (stereo unspecified),> 66.5 µM (inactive),> 100 µM (inactive),> 100 µM (inactive),> 91.4 µM (inactive),21.4 µM (inactive),> 100 µM (inactive),40.6 µM (inactive),52 µM (inactive),48.3 µM (inactive)
[N-]=[N+]=NC(c1cn(C2CC(O)C(CO)O2)c(=O)[nH]c1=O)C(I)I (stereo unspecified),> 100 µM (inactive),> 100 µM (inactive),2.23 µM (inactive),> 100 µM (inactive),> 100 µM (inactive),> 100 µM (inactive),> 100 µM (inactive),–,–
O=CC(O)C(O)C(O)COc1cc(CO)cc2c1C(=O)c1ccccc1C2=O (stereo unspecified),> 100 µM (inactive),> 100 µM (inactive),> 100 µM (inactive),37.6 µM (inactive),> 89.5 µM (inactive),> 100 µM (inactive),> 100 µM (inactive),> 100 µM (inactive),> 100 µM (inactive)
C/C(=N\NC(=O)c1ccccc1O)C1=CNc2ccccc2S1,4.23 µM (inactive),15.7 µM (inactive),6.25 µM (inactive),7.53 µM (inactive),–,7.94 µM (inactive),0.875 µM (active),3.99 µM (inactive),–
CN(C)C(=N)NC(N)=S,> 100 µM (inactive),> 100 µM (inactive),> 100 µM (inactive),> 100 µM (inactive),> 100 µM (inactive),> 100 µM (inactive),> 100 µM (inactive),> 100 µM (inactive),> 100 µM (inactive)
COc1ccc(N2C(=O)c3c(c4[nH]c5ccccc5c4c4ccc(C(C)(C)C)cc34)C2=O)cc1,> 100 µM (inactive),> 100 µM (inactive),58.1 µM (inactive),50.9 µM (inactive),> 100 µM (inactive),25.7 µM (inactive),78.5 µM (inactive),20.7 µM (inactive),40.6 µM (inactive)
Cc1ccc(S(=O)(=O)NNS(C)(=O)=O)cc1,> 100 µM (inactive),> 100 µM (inactive),–,> 100 µM (inactive),> 100 µM (inactive),–,> 100 µM (inactive),–,–
CCOc1ccccc1NC(=O)CCc1n[nH]c(=S)o1,> 100 µM (inactive),> 100 µM (inactive),–,> 100 µM (inactive),–,> 100 µM (inactive),> 100 µM (inactive),> 100 µM (inactive),–
Cc1cccc(-c2nnc(S)[nH]2)c1,> 100 µM (inactive),> 100 µM (inactive),> 100 µM (inactive),> 100 µM (inactive),–,> 100 µM (inactive),> 100 µM (inactive),> 100 µM (inactive),> 100 µM (inactive)
CC(=O)c1cccc(NC(=O)C(=O)NNc2nnc(S)n2N)c1,7.38 µM (inactive),14.1 µM (inactive),11.8 µM (inactive),0.805 µM (active),1.85 µM (inactive),11.3 µM (inactive),10.7 µM (inactive),12.7 µM (inactive),3.01 µM (inactive)
O=c1[nH]c2c(nc1NC13CC4CC(CC(C4)C1)C3)c(=O)oc1ccccc12,23.8 µM (inactive),> 100 µM (inactive),–,> 100 µM (inactive),> 100 µM (inactive),–,> 100 µM (inactive),> 100 µM (inactive),–
CCOC(=O)C1Oc2ccc([N+](=O)[O-])cc2C1(C)O (stereo unspecified),> 100 µM (inactive),–,–,> 100 µM (inactive),> 100 µM (inactive),> 100 µM (inactive),> 100 µM (inactive),> 100 µM (inactive),–
CCOC(OC1=C(C#N)CCC1)C(CC)[Se]c1ccccc1 (stereo unspecified),19.6 µM (inactive),26.1 µM (inactive),27.2 µM (inactive),13.9 µM (inactive),3.1 µM (inactive),29.3 µM (inactive),16.5 µM (inactive),24.9 µM (inactive),–
C=CCOC1=C2CC[C@H](O)[C@@]2(C)CCC1=O,> 100 µM (inactive),> 100 µM (inactive),> 100 µM (inactive),> 100 µM (inactive),> 100 µM (inactive),> 100 µM (inactive),> 100 µM (inactive),–,–
O=S1(=O)c2ccccc2N=C(c2ccccc2Cl)CC1c1ccc(F)cc1 (stereo unspecified),15.2 µM (inactive),18.6 µM (inactive),9.62 µM (inactive),17.7 µM (inactive),19.7 µM (inactive),19.1 µM (inactive),17.8 µM (inactive),15.6 µM (inactive),–
CC(=O)OCC1OC(n2c(=S)n(-c3ccccc3)c(=O)c3cc(Br)ccc32)C(OC(C)=O)C(OC(C)=O)C1OC(C)=O (stereo unspecified),> 100 µM (inactive),> 100 µM (inactive),–,> 100 µM (inactive),> 100 µM (inactive),–,> 100 µM (inactive),–,> 100 µM (inactive)
Cc1noc(C)c1C1=CCCCc2ccccc21,> 100 µM (inactive),> 100 µM (inactive),> 100 µM (inactive),90.2 µM (inactive),> 100 µM (inactive),> 100 µM (inactive),85.5 µM (inactive),–,–
CC1=Nn2c(nnc2-c2ccccc2Cl)NC(C)(C)C1,54.7 µM (inactive),> 100 µM (inactive),–,> 100 µM (inactive),–,> 100 µM (inactive),63.7 µM (inactive),> 100 µM (inactive),–
C=CC/C=C/C/C=C/CCCCCCCc1cccc(O)c1C(=O)O,35 µM (inactive),86.1 µM (inactive),17.3 µM (inactive),43.9 µM (inactive),> 100 µM (inactive),> 100 µM (inactive),36.1 µM (inactive),> 100 µM (inactive),> 100 µM (inactive)
